Reference: patent publication US11358970B2, “Artemisinin-derived trimers and tetramers and their use thereof” (priority 2017, dated 2022)
Like-named read-outs stand apart in the source and are kept apart here.

How the values were obtained:
23 leukemia cell lines = settings: average over 23 leukemia cell lines, relative to artesunate; cited from earlier work
cytomegalovirus = settings: relative to artesunate; cited from earlier work
[1] = tested on: MOLT4 (human T-cell acute lymphoblastic leukemia); experiment: MTT cytotoxicity assay, MOLT4 cell line; format: cell-based; settings: read-out: IC50 MOLT4
Protocol: (§1) Artesunate and dihydroartemisinin were purchased from AK Scientific (Union City, Calif.). CellTiter 96® Non-Radioactive Cell Proliferation Assay (MTT) reagent was purchased from Promega (Madison, Wis.). A549 (human lung carcinoma), HeLa (human cervical carcinoma), MOLT4 (human T-cell acute lymphoblastic leukemia) were purchased from American Type Culture Collection (Manassas, Va.) and cultured in Ham's F-12 K media supplemented with 10% FBS, 100 μg/ml of penicillin and 100 μg/ml of streptomycin. The culture was maintained at 37° C. in a humidified atmosphere of 5% CO2 and 95% air.
(§2) Both reference and test compounds were dissolved in DMSO in a 10-concentration and 3-fold serial dilution format. 50 nl stock solution of test compounds or 25 nl of reference compounds were delivered from the source plate to the wells of 384-well cell culture plates. 25 μl of culture medium containing 2,000 corresponding cancer cells were added to the wells. The plates were incubated at 37° C. in a humidified atmosphere of 5% CO2 and 95% air for 72 hours. 4 μl of MTT Dye Solution was added to each well and the plates were incubated at 37° C. in a CO2 incubator for 4 hours. After incubation, the formazan was produced in the cells. 25 μl of Solubilization/Stop Solution was added to each well and the plates were incubated for another 1 hour at 37° C. in a CO2 incubator to dissolve the formazan crystals.
(§3) The absorbance of each sample was measured at 590 nm using Envision 2104 Multilabel Reader (PerkinElmer, Santa Clara, Calif.). The cell viability was determined based on the quantification of the color intensity in each culture well. The inhibitory curves were plotted and the IC50 values were calculated using GraphPad Prism 4 program based on a sigmoidal dose-response equation.

[2] = tested on: HeLa (human cervical carcinoma); experiment: MTT cytotoxicity assay, HeLa cell line; format: cell-based; settings: read-out: IC50 HeLa
Protocol: as §1, §2, §3

HepG2 cell line = experiment: MTT cytotoxicity assay, HepG2 cell line; format: cell-based
Protocol: as §2, §3

[3] = tested on: A549 (human lung carcinoma); experiment: MTT cytotoxicity assay, A549 cell line; format: cell-based; settings: 72 hours; for inhibition at 0.1 µM / inhibition at 0.25 µM / inhibition at 0.5 µM / inhibition at 1 µM: Homo sapiens
Protocol: as §1, §2, §3

[4] = Homo sapiens, MOLT-4, MOLT4, 72 hours, MTT
[5] = HepG2, MTT, read-out: IC50 HepG2
[6] = Homo sapiens, HepG2, MTT, read-out: IC50 HepG2

C[C@@H]1CCC2[C@@H](C)[C@@H](CC(COP(=O)(Oc3ccccc3)Oc3ccccc3)C[C@H]3O[C@@H]4O[C@@]5(C)CCC6[C@H](C)CCC([C@H]3C)[C@]64OO5)O[C@@H]3O[C@@]4(C)CCC1[C@@]23OO4 (some centres unmarked) [ART838]
folds more potent than artesunate in inhibiting 23 leukemia cell lines (average) (23 leukemia cell lines): 88 folds
fold more potent in inhibiting growth of cytomegalovirus than artesunate (cytomegalovirus): 165 fold

C[C@H]1[C@H](OC(=O)CCC(=O)O)O[C@@H]2O[C@@]3(C)CC[C@H]4[C@H](C)CC[C@@H]1[C@@]24OO3 [Artesunate, reference compound]
IC50 ([1]; Homo sapiens, MOLT-4, 72 h): 1010 nM
IC50 ([2]; Homo sapiens, 72 h): 9570 nM
IC50 (HepG2 cell line; Homo sapiens, HepG2, read-out: IC50 HepG2): 11200 nM

C[C@H]1[C@H](OC(=O)CCC(=O)OCCN(CCOC(=O)CCC(=O)O[C@@H]2O[C@@H]3O[C@]4(C)CC[C@H]5[C@H](C)CC[C@@H]([C@H]2C)[C@@]35OO4)CCOC(=O)CCC(=O)O[C@@H]2O[C@@H]3O[C@]4(C)CC[C@H]5[C@H](C)CC[C@@H]([C@H]2C)[C@@]35OO4)O[C@@H]2O[C@@]3(C)CC[C@H]4[C@H](C)CC[C@@H]1[C@@]24OO3 [Compound 1]
IC50 [1, 4]: 318 nM
IC50 ([2]; Homo sapiens, 72 hours, MTT): 1720 nM
inhibition at 0.1 µM ([3]; 0.1 μM): 10%
inhibition at 0.25 µM ([3]; 0.25 μM): 14%
inhibition at 0.5 µM ([3]; 0.5 μM): 20%
inhibition at 1 µM ([3]; 1.0 μM): 47%

C[C@@H]1CC[C@H]2[C@@H](C)C(OC(=O)CN(CC(=O)OC3O[C@@H]4O[C@@]5(C)CC[C@H]6[C@H](C)CC[C@@H]([C@H]3C)[C@@]46OO5)CC(=O)OC3O[C@@H]4O[C@@]5(C)CC[C@H]6[C@H](C)CC[C@@H]([C@H]3C)[C@@]46OO5)O[C@@H]3O[C@@]4(C)CC[C@@H]1[C@]32OO4 (some centres unmarked) [Compound 2]
IC50 ([1]; MOLT4, 72 hours, MTT): 320 nM
IC50 ([2]; 72 hours, MTT): 1140 nM
Inhibition (%) ([3]; 0.1 μM): 12%
Inhibition (%) ([3]; 0.25 μM): 20%
Inhibition (%) ([3]; 0.5 μM): 21%
Inhibition (%) ([3]; 1.0 μM): 40%

CC1CCC2C(C)C(OC(=O)CCC(=O)OCC(COC(=O)CCC(=O)OC3OC4OC5(C)CCC6C(C)CCC(C3C)C46OO5)OC(=O)CCC(=O)OC3OC4OC5(C)CCC6C(C)CCC(C3C)C46OO5)OC3OC4(C)CCC1C32OO4 (centres unmarked) [Compound 3]
IC50 ([1]; MOLT4, 72 hours, MTT): 60 nM
IC50 ([2]; 72 hours, MTT): 630 nM
IC50 (HepG2 cell line; [5]): 830 nM

C[C@H]1[C@H](OC(=O)CCC(=O)NC(COC(=O)CCC(=O)O[C@@H]2O[C@@H]3O[C@@]4(C)CC[C@H]5[C@H](C)CC[C@@H]([C@H]2C)[C@@]35OO4)COC(=O)CCC(=O)O[C@@H]2O[C@@H]3O[C@@]4(C)CC[C@H]5[C@H](C)CC[C@@H]([C@H]2C)[C@@]35OO4)O[C@@H]2O[C@@]3(C)CC[C@H]4[C@H](C)CC[C@@H]1[C@@]24OO3 [Compound 4]
IC50 (HepG2 cell line; [6]): 1790 nM

C[C@H]1[C@H](OC(=O)CCC(=O)OCC(COC(=O)CCC(=O)O[C@@H]2O[C@@H]3O[C@@]4(C)CC[C@H]5[C@H](C)CC[C@@H]([C@H]2C)[C@@]35OO4)(COC(=O)CCC(=O)O[C@@H]2O[C@@H]3O[C@@]4(C)CC[C@H]5[C@H](C)CC[C@@H]([C@H]2C)[C@@]35OO4)NC(=O)OC(C)(C)C)O[C@@H]2O[C@@]3(C)CC[C@H]4[C@H](C)CC[C@@H]1[C@@]24OO3 [Compound 7]
IC50 [1, 4]: 119 nM
IC50 ([2]; Homo sapiens, 72 hours, MTT): 602 nM
inhibition at 0.1 µM ([3]; 0.1 μM): 12%
inhibition at 0.25 µM ([3]; 0.25 μM): 14%
inhibition at 0.5 µM ([3]; 0.5 μM): 21%
inhibition at 1 µM ([3]; 1.0 μM): 40%

CC(=O)NC(COC(=O)CCC(=O)O[C@@H]1O[C@@H]2O[C@@]3(C)CC[C@H]4[C@H](C)CC[C@@H]([C@H]1C)[C@@]24OO3)(COC(=O)CCC(=O)O[C@@H]1O[C@@H]2O[C@@]3(C)CC[C@H]4[C@H](C)CC[C@@H]([C@H]1C)[C@@]24OO3)COC(=O)CCC(=O)O[C@@H]1O[C@@H]2O[C@@]3(C)CC[C@H]4[C@H](C)CC[C@@H]([C@H]1C)[C@@]24OO3 [Compound 9]
IC50 [1, 4]: 66 nM
IC50 ([2]; Homo sapiens, 72 hours, MTT): 360 nM
IC50 (HepG2 cell line; [6]): 310 nM

C[C@H]1[C@H](OC(=O)CCC(=O)OCC(COC(=O)CCC(=O)O[C@@H]2O[C@@H]3O[C@@]4(C)CC[C@H]5[C@H](C)CC[C@@H]([C@H]2C)[C@@]35OO4)(COC(=O)CCC(=O)O[C@@H]2O[C@@H]3O[C@@]4(C)CC[C@H]5[C@H](C)CC[C@@H]([C@H]2C)[C@@]35OO4)NC=O)O[C@@H]2O[C@@]3(C)CC[C@H]4[C@H](C)CC[C@@H]1[C@@]24OO3 [Compound 11]
IC50 (HepG2 cell line; [6]): 550 nM

C[C@H]1[C@H](OC(=O)CCC(=O)OCC(COC(=O)CCC(=O)O[C@@H]2O[C@@H]3O[C@@]4(C)CC[C@H]5[C@H](C)CC[C@@H]([C@H]2C)[C@@]35OO4)(COC(=O)CCC(=O)O[C@@H]2O[C@@H]3O[C@@]4(C)CC[C@H]5[C@H](C)CC[C@@H]([C@H]2C)[C@@]35OO4)NC(=O)C(F)(F)F)O[C@@H]2O[C@@]3(C)CC[C@H]4[C@H](C)CC[C@@H]1[C@@]24OO3 [Compound 12]
IC50 (HepG2 cell line; [6]): 7800 nM

C[C@@H]1[C@@H](OC(=O)CCC(=O)NC(COC(=O)CCC(=O)O[C@@H]2O[C@@H]3O[C@@]4(C)CC[C@H]5[C@H](C)CC[C@@H]([C@H]2C)[C@@]35OO4)(COC(=O)CCC(=O)O[C@@H]2O[C@@H]3O[C@@]4(C)CC[C@H]5[C@H](C)CC[C@@H]([C@H]2C)[C@@]35OO4)COC(=O)CCC(=O)O[C@@H]2O[C@@H]3O[C@@]4(C)CC[C@H]5[C@H](C)CC[C@@H]([C@H]2C)[C@@]35OO4)O[C@H]2O[C@@]3(C)CC[C@@H]4[C@@H](C)CC[C@H]1[C@]24OO3 [Compound 13]
IC50 [1, 4]: 150 nM
IC50 ([2]; Homo sapiens, 72 hours, MTT): 14200 nM

C[C@H]1[C@H](OC(=O)CC(CC(=O)O[C@@H]2O[C@@H]3O[C@]4(C)CC[C@H]5[C@H](C)CC[C@@H]([C@H]2C)[C@@]35OO4)C(=O)O[C@@H]2O[C@@H]3O[C@]4(C)CC[C@H]5[C@H](C)CC[C@@H]([C@H]2C)[C@@]35OO4)O[C@@H]2O[C@@]3(C)CC[C@H]4[C@H](C)CC[C@@H]1[C@@]24OO3 (some centres unmarked) [Compound 14]
IC50 (HepG2 cell line; [5]): 1300 nM

C[C@H]1[C@H](OC(=O)CCC(=O)OCCN(CCOC(=O)CCC(=O)O[C@@H]2O[C@@H]3O[C@@]4(C)CC[C@H]5[C@H](C)CC[C@@H]([C@H]2C)[C@@]35OO4)CCN(CCOC(=O)CCC(=O)O[C@@H]2O[C@@H]3O[C@@]4(C)CC[C@H]5[C@H](C)CC[C@@H]([C@H]2C)[C@@]35OO4)CCOC(=O)CCC(=O)O[C@@H]2O[C@@H]3O[C@@]4(C)CC[C@H]5[C@H](C)CC[C@@H]([C@H]2C)[C@@]35OO4)O[C@@H]2O[C@@]3(C)CC[C@H]4[C@H](C)CC[C@@H]1[C@@]24OO3 [Compound 15]
IC50 [1, 4]: 275 nM
IC50 ([2]; Homo sapiens, 72 hours, MTT): 35200 nM

C[C@H]1[C@H](OC(=O)CCC(=O)OCCN(CCO)CCN(CCOC(=O)CCC(=O)O[C@@H]2O[C@@H]3O[C@@]4(C)CC[C@H]5[C@H](C)CC[C@@H]([C@H]2C)[C@@]35OO4)CCOC(=O)CCC(=O)O[C@@H]2O[C@@H]3O[C@@]4(C)CC[C@H]5[C@H](C)CC[C@@H]([C@H]2C)[C@@]35OO4)O[C@@H]2O[C@@]3(C)CC[C@H]4[C@H](C)CC[C@@H]1[C@@]24OO3 [Compound 16]
IC50 [1, 4]: 217 nM
IC50 ([2]; Homo sapiens, 72 hours, MTT): 1110 nM

C[C@H]1[C@@H](O)O[C@@H]2O[C@@]3(C)CC[C@H]4[C@H](C)CC[C@@H]1[C@@]24OO3 [Dihydroartemisinin, reference compound]
IC50 [1, 4]: 680 nM
IC50 ([2]; Homo sapiens, 72 hours, MTT): 9340 nM
inhibition at 0.25 µM ([3]; 0.25 μM): 5%
inhibition at 0.5 µM ([3]; 0.5 μM): 10%
inhibition at 1 µM ([3]; 1.0 μM): 20%
